# How the values were obtained:
# [1] = molecular target: T1, purified CMPK2 protein (WT) (Homo sapiens, UniProt Q5EBM0); experiment: Microscale thermophoresis (MST) binding to CMPK2
# T1 construct: the N‐terminus was truncated by 22 amino acids; 6xHis (C); made in house; host or cells: FreeStyle 293-F cells (pTT5 vector)
# T1 sequence (Q5EBM0 22-449): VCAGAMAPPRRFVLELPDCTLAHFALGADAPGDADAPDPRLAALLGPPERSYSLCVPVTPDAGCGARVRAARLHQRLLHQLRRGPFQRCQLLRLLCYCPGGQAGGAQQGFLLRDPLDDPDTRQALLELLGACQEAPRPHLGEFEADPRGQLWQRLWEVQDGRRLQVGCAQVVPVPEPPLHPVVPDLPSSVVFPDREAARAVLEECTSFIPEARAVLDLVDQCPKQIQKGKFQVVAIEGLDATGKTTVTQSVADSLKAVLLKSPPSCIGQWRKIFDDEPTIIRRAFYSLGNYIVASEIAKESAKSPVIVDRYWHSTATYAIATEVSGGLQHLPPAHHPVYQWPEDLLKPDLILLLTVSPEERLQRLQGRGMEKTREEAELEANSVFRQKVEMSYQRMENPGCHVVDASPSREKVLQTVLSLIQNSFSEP
# Procedure: The MST assay is an emerging technique used to quantitatively elucidate binding. The binding parameter between CMPK2 and DP was measured using MST on a Monolith NT.115 system (Germany). CMPK2 was fluorescently labeled with the Monolith NT Protein Labeling Kit RED (L018, NanoTemper Technologies GmbH, Munich, Germany) according to the manufacturer's instructions. The Monolith NT.115 system was used with Monolith NT.115 standard capillaries (M0-[…]). MST assay buffer was used to dilute the labeled CMPK2 to 2 μM. Sixteen dilutions (1:1) of the ligand were prepared using the same buffer, starting at a concentration of 10 μM. An equivalent volume of the labeled CMPK2 was added to each of the dilutions and loaded into Monolith NT.115 standard treated capillaries (Nano Temper Technologies), which were used to measure the MST trace at a temperature of 27°C. The experimental parameters were adjusted to medium MST power and 40% LED/excitation power. The binding and dissociation constants (Kd) were evaluated and calculated using M0-Affinity analysis software version 2.1.3 (Nano Temper Technologies) for the ligand.
# [2] = system: ASC oligomerization in BMDMs; experiment: ASC oligomerization assay; type: cell-based, mouse; settings: DP 12 h before or 1 h after LPS; ATP/Nigericin
# Procedure: BMDMs were seeded at 1×10^6 cells/ml in 6-well plates. After cell adherence, BMDMs were treated with different concentrations of DP. The following day, the medium was replaced, and the cells were primed with 200 ng/ml LPS for 4 h and then stimulated with Nigericin or ATP for 45 min. BMDMs were primed with 200 ng/ml LPS for 4 h. The cells were treated with DP for 1 h and then stimulated with Nigericin or ATP for 45 min. The supernatant was removed, the cells were rinsed in ice-cold PBS, and then, the cells were lysed with NP-40 for 30 min. Lysates were centrifuged at 6000×g for 10 min at 4°C. The pellets were washed twice in 200 μl of ice-cold PBS and resuspended in 200 μl of PBS. Then, 2 mM disuccinimidyl suberate (DSS) was added to the resuspended pellets, which were incubated at room temperature for 30 min with rotation. Samples were then centrifuged at 6000×g for 10 min at 4°C. The cross-linked pellets were resuspended in 40 μl of 2× loading buffer and then boiled and analyzed by immunoblotting.
# [3] = molecular target: CMPK2 mutant at K282; experiment: ADP-GLO kinase activity of CMPK2 K282 mutant; type: biochemical, human
# Procedure: Human CMPK2 and K265, K282 and K320 mutated CMPK2 cDNA were cloned and inserted into the pTT5 vector, and the constructed plasmid was amplified by the DH5α strain. The C‐terminus of the cDNA was fused with a 6× His tag, and the N‐terminus was truncated by 22 amino acids (Figure 1B–F and Supporting Information Figure S5A,B). When the free‐style 293‐F cells reached the proper density, approximately 1 mg of expression plasmid was premixed with 3 mg polyethylenimine in UltraFectin medium and incubated prior to transfection. This mixture was then added to the appropriate amount of fresh cell culture medium, incubated for 30 min and collected after 48 h.
# CMPK2 activity was measured by the ADP‐GLO kinase assay according to the guidelines specified in the manufacturer's instructions. In the activity assay, the amount of ADP formed in the CMPK2 reaction was equal to the ATP consumption and proportional to the increase in luminescence generated in the luciferase reaction, which is the experimental principle shown in Figure 1I.
# [4] = system: BMDMs; experiment: Mitochondrial membrane potential (JC-1) and mtROS (MitoSOX); type: cell-based, mouse; settings: DP 12 h, LPS priming, ATP
# Procedure: The treated bone marrow‐derived macrophages (BMDMs) and JC‐1 working solution were incubated in a cell incubator for 30 min. At the end of the warm incubation, the cells were washed three times with PBS, and images were captured with a Harmony 4.8 (PerkinElmer). Meanwhile, the stained BMDMs were quantified by flow cytometry.
# For mitochondrial ROS (mtROS) measurement, according to the instruction guidelines, a diluted 5 μM MitoSOX working solution was incubated with treated BMDMs in a cell incubator for 10 min according to the instructional guidelines. The BMDMs were gently washed with warm buffer to remove the working solution. The images were captured using Harmony 4.8 (PerkinElmer). Meanwhile, the stained BMDMs were quantified by flow cytometry.
structure (smiles),measurement,setting,value
"COc1c2ccc(-c3ccccc3)oc-2cc(=O)c1C [compound 73, Dracohodin perochlorate]",Kd,[1],350 ± 34.9 nM
same,ASC oligomerization,[2],blocked
same,kinase activity of the mutant at K282,[3],slight inhibitory effect
same,mitochondrial membrane potential,[4],significantly reversed
same,mtROS production,[4],inhibited
